Results reported in the supplement of paper PMC10307832.

Legend:
Experiment in all cases: relative viability (nuclei count vs DMSO), 5 days (fraction); higher = more cells survive
NCI-H441 = system: NCI-H441
Outline: (§1)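 Lung cancer cell lines were seeded in 1536-well plates and dosed by pin tool the next day, with either a single drug or a fixed anchor-drug dose combined with five library-drug doses (not always all listed) spaced in √10 steps. Five days later, one step fixed the cells and stained their nuclei (final 0.05% Triton X-100, 1% formaldehyde, 1 ug/ml Hoechst), and nuclei were counted on 4× images. Relative viability is the nuclei count in treated wells divided by the count in vehicle wells, and each value is the median of duplicate plates.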

NCI-H322M = system: NCI-H322M
Outline: as §1

NCI-H1975 = system: NCI-H1975
Outline: as §1

HOP-62 = system: HOP-62
Outline: as §1

HCC-15 = system: HCC-15
Outline: as §1

EPLC-272H = system: EPLC-272H
Outline: as §1

EMC-BAC-2 = system: EMC-BAC-2
Outline: as §1

NCI-H2085 = system: NCI-H2085
Outline: as §1

NCI-H358 = system: NCI-H358
Outline: as §1

HCC-78 = system: HCC-78
Outline: as §1

NCI-H2126 = system: NCI-H2126
Outline: as §1

NCI-H2023 = system: NCI-H2023
Outline: as §1

NCI-H1915 = system: NCI-H1915
Outline: as §1

UMC-11 = system: UMC-11
Outline: as §1

NCI-H1755 = system: NCI-H1755
Outline: as §1

CAL-12T = system: CAL-12T
Outline: as §1

NCI-H3122 = system: NCI-H3122
Outline: as §1

NCI-H1666 = system: NCI-H1666
Outline: as §1

COR-L 105 = system: COR-L 105
Outline: as §1

ABC-1 = system: ABC-1
Outline: as §1

LXF-289 = system: LXF-289
Outline: as §1

Work on `Cc1sc2c(c1C)C(c1ccc(Cl)cc1)=N[C@@H](CC(=O)OC(C)(C)C)c1nnc(C)n1-2` [JQ1] + Cc1nc(NC(=O)N2CCC[C@H]2C(N)=O)sc1-c1ccnc(C(C)(C)C(F)(F)F)c1 [Alpelisib] (partner 2 µM) yielded a relative viability (NCI-H441; first compound 0.04 µM) of 0.772, a relative viability (NCI-H441; first compound 0.1265 µM) of 0.958 and a relative viability (NCI-H441; first compound 0.4 µM) of 0.692. For the same compound, the relative viability (NCI-H441; first compound 1.265 µM) was 0.294, the relative viability (NCI-H441; first compound 4 µM) was 0.444 and the relative viability (NCI-H322M; first compound 0.04 µM) was 0.752. It also gave a relative viability (NCI-H322M; first compound 0.1265 µM) of 0.77, a relative viability (NCI-H322M; first compound 0.4 µM) of 0.862 and a relative viability (NCI-H322M; first compound 1.265 µM) of 0.68. For the same compound, the relative viability (NCI-H322M; first compound 4 µM) was 0.587, the relative viability (NCI-H1975; first compound 0.04 µM) was 0.662 and the relative viability (NCI-H1975; first compound 0.1265 µM) was 0.424. It also gave a relative viability (NCI-H1975; first compound 0.4 µM) of 0.578, a relative viability (NCI-H1975; first compound 1.265 µM) of 0.348 and a relative viability (NCI-H1975; first compound 4 µM) of 0.335. For the same compound, the relative viability (HOP-62; first compound 0.04 µM) was 1.2, the relative viability (HOP-62; first compound 0.1265 µM) was 0.728 and the relative viability (HOP-62; first compound 0.4 µM) was 0.332. For the same compound, the relative viability (HOP-62; first compound 1.265 µM) was 0.182, the relative viability (HOP-62; first compound 4 µM) was 0.09 and the relative viability (HCC-15; first compound 0.04 µM) was 0.806. It also gave a relative viability (HCC-15; first compound 0.4 µM) of 0.768, a relative viability (HCC-15; first compound 1.265 µM) of 0.417 and a relative viability (HCC-15; first compound 4 µM) of 0.449. The relative viability (EPLC-272H; first compound 0.04 µM) was 0.897, the relative viability (EPLC-272H; first compound 0.1265 µM) was 0.904 and the relative viability (EPLC-272H; first compound 0.4 µM) was 0.889. It also gave a relative viability (EPLC-272H; first compound 1.265 µM) of 0.423, a relative viability (EPLC-272H; first compound 4 µM) of 0.376 and a relative viability (EMC-BAC-2; first compound 0.04 µM) of 0.663. It also gave a relative viability (EMC-BAC-2; first compound 0.1265 µM) of 0.749, a relative viability (EMC-BAC-2; first compound 0.4 µM) of 0.576 and a relative viability (EMC-BAC-2; first compound 1.265 µM) of 0.439. It also gave a relative viability (EMC-BAC-2; first compound 4 µM) of 0.386, a relative viability (NCI-H2085; first compound 0.04 µM) of 0.975 and a relative viability (NCI-H2085; first compound 0.1265 µM) of 0.844. It also gave a relative viability (NCI-H2085; first compound 0.4 µM) of 0.824, a relative viability (NCI-H2085; first compound 1.265 µM) of 0.595 and a relative viability (NCI-H2085; first compound 4 µM) of 0.549. The relative viability (NCI-H358; first compound 0.04 µM) was 0.761, the relative viability (NCI-H358; first compound 0.1265 µM) was 1.05 and the relative viability (NCI-H358; first compound 0.4 µM) was 0.93. The relative viability (NCI-H358; first compound 1.265 µM) was 0.515, the relative viability (NCI-H358; first compound 4 µM) was 0.527 and the relative viability (HCC-78; first compound 0.04 µM) was 0.336. For the same compound, the relative viability (HCC-78; first compound 0.1265 µM) was 0.34, the relative viability (HCC-78; first compound 0.4 µM) was 0.281 and the relative viability (HCC-78; first compound 1.265 µM) was 0.234. It also gave a relative viability (HCC-78; first compound 4 µM) of 0.252, a relative viability (NCI-H2126; first compound 0.04 µM) of 0.797 and a relative viability (NCI-H2126; first compound 0.1265 µM) of 0.682. For the same compound, the relative viability (NCI-H2126; first compound 0.4 µM) was 0.681, the relative viability (NCI-H2126; first compound 1.265 µM) was 0.516 and the relative viability (NCI-H2126; first compound 4 µM) was 0.47. It also gave a relative viability (NCI-H2023; first compound 0.04 µM) of 0.544, a relative viability (NCI-H2023; first compound 0.1265 µM) of 0.651 and a relative viability (NCI-H2023; first compound 0.4 µM) of 0.531. It also gave a relative viability (NCI-H2023; first compound 1.265 µM) of 0.213, a relative viability (NCI-H2023; first compound 4 µM) of 0.217 and a relative viability (NCI-H1915; first compound 0.04 µM) of 1.05. For the same compound, the relative viability (NCI-H1915; first compound 0.1265 µM) was 0.94, the relative viability (NCI-H1915; first compound 0.4 µM) was 0.982 and the relative viability (NCI-H1915; first compound 1.265 µM) was 0.613. It also gave a relative viability (NCI-H1915; first compound 4 µM) of 0.33, a relative viability (UMC-11; first compound 0.04 µM) of 0.941 and a relative viability (UMC-11; first compound 0.1265 µM) of 0.997. The relative viability (UMC-11; first compound 0.4 µM) was 0.26, the relative viability (UMC-11; first compound 1.265 µM) was 0.197 and the relative viability (UMC-11; first compound 4 µM) was 0.158. The relative viability (NCI-H1755; first compound 0.04 µM) was 0.916, the relative viability (NCI-H1755; first compound 0.1265 µM) was 0.918 and the relative viability (NCI-H1755; first compound 0.4 µM) was 1.01. The relative viability (NCI-H1755; first compound 1.265 µM) was 0.623, the relative viability (NCI-H1755; first compound 4 µM) was 0.533 and the relative viability (CAL-12T; first compound 0.04 µM) was 1.08. It also gave a relative viability (CAL-12T; first compound 0.1265 µM) of 1.42, a relative viability (CAL-12T; first compound 0.4 µM) of 0.919 and a relative viability (CAL-12T; first compound 1.265 µM) of 0.325. The relative viability (CAL-12T; first compound 4 µM) was 0.328, the relative viability (NCI-H3122; first compound 0.04 µM) was 0.833 and the relative viability (NCI-H3122; first compound 0.1265 µM) was 0.771. For the same compound, the relative viability (NCI-H3122; first compound 0.4 µM) was 0.963, the relative viability (NCI-H3122; first compound 1.265 µM) was 0.661 and the relative viability (NCI-H3122; first compound 4 µM) was 0.663. For the same compound, the relative viability (NCI-H1666; first compound 0.04 µM) was 0.802, the relative viability (NCI-H1666; first compound 0.1265 µM) was 1.04 and the relative viability (NCI-H1666; first compound 0.4 µM) was 0.696. It also gave a relative viability (NCI-H1666; first compound 1.265 µM) of 0.507, a relative viability (NCI-H1666; first compound 4 µM) of 0.444 and a relative viability (COR-L 105; first compound 0.04 µM) of 0.799. It also gave a relative viability (COR-L 105; first compound 0.1265 µM) of 0.642, a relative viability (COR-L 105; first compound 0.4 µM) of 0.421 and a relative viability (COR-L 105; first compound 1.265 µM) of 0.252. For the same compound, the relative viability (COR-L 105; first compound 4 µM) was 0.255, the relative viability (ABC-1; first compound 0.04 µM) was 1.07 and the relative viability (ABC-1; first compound 0.1265 µM) was 1.04. It also gave a relative viability (ABC-1; first compound 0.4 µM) of 0.829, a relative viability (ABC-1; first compound 1.265 µM) of 0.424 and a relative viability (ABC-1; first compound 4 µM) of 0.465. It also gave a relative viability (LXF-289; first compound 0.04 µM) of 1.02, a relative viability (LXF-289; first compound 0.1265 µM) of 0.983 and a relative viability (LXF-289; first compound 0.4 µM) of 0.97. The relative viability (LXF-289; first compound 1.265 µM) was 0.718 and the relative viability (LXF-289; first compound 4 µM) was 0.634.
